In PubChem BioAssay (NCI):
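Method: 48-hour compound exposure of cells in 96-well plates, five concentrations, linear interpolation of endpoints. GI50 = concentration required for 50% inhibition of growth. TGI denotes the concentration required for complete inhibition of growth.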 Where a SMILES comes first, the peptide text is derived from it. Bridges are numbered along the chain shown (N, C = ends). [ ]: non-standard residue; d: D form. ξ: configuration not given here. ξThr(3R) = C[C@@H](O)C(N)C(=O)O; S5 = C=CCCC[C@](C)(N)C(=O)O

Columns and labels:
Test in all cases: inhibition of tumour cell growth, NCI panel, 48 h
[1] = test system: EKVX NSCLC
[2] = test system: UO-31 renal
[3] = test system: HCT-15 colon
[4] = test system: UACC-62 melanoma
[5] = test system: IGROV1 ovarian
[6] = test system: SK-MEL-28 melanoma
[7] = test system: MDA-MB-435
[8] = test system: PC-3 prostate
[9] = test system: NCI-H460 lung
[10] = test system: ACHN renal

| Structure (SMILES) | GI50 [1] [µM] | TGI [1] [µM] | GI50 [2] [µM] | TGI [2] [µM] | GI50 [3] [µM] | TGI [3] [µM] | GI50 [4] [µM] | TGI [4] [µM] | GI50 [5] [µM] | TGI [5] [µM] | GI50 [6] [µM] | TGI [6] [µM] | GI50 [7] [µM] | TGI [7] [µM] | GI50 [8] [µM] | TGI [8] [µM] | GI50 [9] [µM] | TGI [9] [µM] | GI50 [10] [µM] | TGI [10] [µM] |
| --- | --- | --- | --- | --- | --- | --- | --- | --- | --- | --- | --- | --- | --- | --- | --- | --- | --- | --- | --- | --- |
| O=C1c2cccnc2C(=O)c2c1c(C(=O)NCCn1ccnc1)c1ccccn21 | 4.54 | 18.6 | 4.07 | 41.6 | 3.31 | 15.1 | 1.84 | 4.4 | 3.27 | 14.2 | 4.66 | 20.7 | 1.71 | 3.13 | 3.33 | 15.2 | 0.551 | 2.29 | 2.75 | 36 |
| CN(C)Cc1ccc(C(C)(C)C)cc1-c1cc(C(C)(C)C)ccc1CN(C)C |  | > 100 |  | > 100 |  | > 100 |  | > 100 |  | > 100 |  | > 100 |  | > 100 |  | > 100 |  | > 100 |  | > 100 |
| CC(=O)N[C@H](C(=O)N[C@@H](CCCNC(=N)N)C(=O)N[C@@H](CCCCN)C(=O)N[C@@H](CCCNC(=N)N)C(=O)NC(C(=O)N[C@@H](CC(C)C)C(=O)N[C@@H](CCCNC(=N)N)C(=O)N[C@@]1(C)CCC/C=C\CCC[C@@](C)(C(=O)N[C@@H](CCCNC(=N)N)C(=O)N[C@@H](CCC(=O)O)C(=O)N[C@@H](CC(C)C)C(=O)N[C@H](C(=O)N[C@@H](CCC(=O)O)C(N)=O)C(C)C)NC(=O)[C@H](CCC(N)=O)NC(=O)[C@H](CC(C)C)NC(=O)[C@H](CC(C)C)NC1=O)[C@@H](C)O)C(C)C (stereo partly drawn) (Ac-VRKR[ξThr(3R)]LR[S5]LLQ[S5]RELVE-NH2; staple (Z) 8-12) | 6.03 | 14.2 | 9.2 | 17.5 | 6.22 | 14.7 | 1.13 | 2.81 |  |  | 3.93 | 11.3 | 1.94 | 7.56 | 7.76 | 15.3 | 1.76 | 6.84 | 6.97 | 14.7 |
| CCCCCC[C@@H](C)Nc1nc2ccccc2c2occc12 | 0.39 | 5 | 2.05 | 17.2 | 10.1 | 21.6 | 13.2 | 25.9 | 0.0871 | 11.5 | 18.5 | 36.5 | 15.5 | 40.2 | 22.9 | 71.6 | 4.19 | > 100 | 15.5 | 28.8 |
| COc1c(O)cc2c(c1O)C(=O)C1=C(CCCC1)C2=O |  | 86.6 |  | 43.8 |  | > 100 |  | 48.8 |  | 43.8 |  | 62 |  | > 100 |  | 84.5 |  | 73.4 |  | 58.4 |
| CCN(CC)CCC(CNc1ccnc2cc(Cl)ccc12)c1ccccc1 (stereo unspecified) | 28.5 | > 100 | 2.72 | 14.3 | 3.51 | 20.8 | 2.04 | 5.05 | 7.98 | 55.7 | 1.92 | 3.45 | 2.01 | 5.02 | 13.9 | 69.9 | 8.36 | 29 | 3.91 | 14.7 |
| CCN(CC)c1ccc2nc3c4ccccc4c(=O)cc-3n(-c3ccccc3)c2c1 | 1.04 | 5.85 | 0.786 | 3.48 | 2.1 | 49.3 | 1.36 | 4.31 | 0.62 | 2.92 | 2.05 | 7.07 | 0.899 | 3.46 | 1.9 | 7.58 | 2.26 | 6.46 | 2.13 | 14.9 |
| O=C(COc1ccc(OCC(=O)N2C(=O)CN(c3ccccc3)C2=S)cc1)N1C(=O)CN(c2ccccc2)C1=S | > 25 | > 100 | > 25 | > 100 | > 25 | > 100 | > 25 | > 100 | 29.3 | > 100 | > 25 | > 100 | > 25 | > 100 |  | > 100 | > 25 | > 100 | > 25 | > 100 |
| CCN(CC)c1ccc(C2NC(=O)c3ccccc3N2)cc1 (stereo unspecified) |  | > 100 |  | > 100 |  | > 100 |  | > 100 |  | > 100 |  | > 100 |  | 3.44 |  | > 100 |  | 7.14 |  | > 100 |
| Cc1nc(-c2cnc(NC(C)C)n(C)c2=O)ccc1Oc1ccnc(-c2cnn(C)c2)c1 | 10.4 | 99.7 | 15.7 | > 100 | 5.51 | > 100 | 4.84 | 45.7 | 15 | > 100 | 14.2 | > 100 | 2.98 | 18.2 | 16.5 | > 100 | 13.2 | > 100 | 18.9 | > 100 |
| CCN(CC)CCN1C(=O)C2C3C(=O)CC(C)(CC3C)C2C1=O (stereo unspecified) | > 100 | > 100 | > 100 | > 100 | > 100 | > 100 | > 100 | > 100 | > 100 | > 100 |  |  | > 100 | > 100 | > 100 | > 100 |  |  | > 100 | > 100 |
| CN(C)C=NC1CCC(C(C)(C)C)CC1 (stereo unspecified) |  | 59.8 |  | 30.8 |  | 32.8 |  | 33.8 |  | 37.9 |  | 29.4 |  | 33.3 |  | 30.3 |  | 35.1 |  | 43.8 |
| O=C1C=CC(=Nc2cccc3c(N=C4C=CC(=O)O4)cccc23)O1 |  | 35.2 |  | > 100 |  | > 100 |  | > 100 |  | > 100 |  | > 100 |  | > 100 |  | > 100 |  | > 100 |  | 78.5 |
| C(=Nc1cnc2ccccc2c1)c1ccc2ccccc2n1 |  | > 100 |  | > 100 |  | > 100 |  | > 100 |  | > 100 |  | > 100 |  | > 100 |  | > 100 |  | > 100 |  | > 100 |
| O=C1c2ccccc2C(=O)c2c1ccc1c(=O)n(-c3ccccc3C(F)(F)F)nnc21 | 2.36 | 6.43 | 1.68 | > 100 |  |  | 1.52 | 3.21 | 1.33 | 3.31 | 5.79 | > 100 | 1.66 | 3.1 | 2.2 | > 100 | 1.97 | 5.07 | 2.7 | > 100 |
